Drawing on patent US20110190503A1, “Thiazolopyridin-2-yloxy-phenyl and thiazolopyrazin-2-yloxy-phenyl amines as modulators of leukotriene A4 hydrolase” (Janssen Pharmaceutical NV, priority 2008, published 2011), this text covers inhibition in vivo, inhibition and IC50 for 16 compounds.

In experiment [1] the test system is neutrophil influx. Briefly: Murine arachidonic acid-induced inflammation model: neutrophil influx in ear, myeloperoxidase activity (% Inh. MPO). In kind it is in vivo. The settings on record: Mus musculus, female Balb/c mice, 30 mg/kg oral gavage, ear biopsy 3 h after topical arachidonic acid, number of determinations in parentheses. The protocol: (§1) Assay 4: Murine Arachidonic Acid-Induced Inflammation Model
(§2) LTA4H inhibitor compounds of the present invention were dissolved in 20% cyclodextran/H2O at a concentration of 3 mg/mL. The solutions were administered by oral gavage to female Balb/c mice weighing approximately 20 grams each (0.2 mL per mouse, 30 mg of LTA4H inhibitor compound per kg). Sixty minutes after being administered an LTA4 inhibitor, each mouse received topical application of 20 μL of arachidonic acid (100 mg/mL in acetone) to the left ear and 20 μL of acetone only to the right ear. After 3 h, the mice were sacrificed, blood was withdrawn in heparinized syringes, and 8 mm ear biopsies were taken. Ear biopsies were weighed to determine edema and then frozen at −80° C. until needed for determination of neutrophil influx.
Neutrophil influx was quantified by measuring the activity of myeloperoxidase (MPO), a neutrophil-specific enzyme. The ear biopsies were homogenized in 0.5 mL extraction buffer (0.3 M sucrose, 0.22% (w/v) hexadecyl trimethyl ammonium bromide (CTAB), and 2.5 mM citrate prepared from 0.5 M citrate stock solution (pH 5.0)), in a Fast-Prep-24 (MP™) (40 seconds at 6 mps). Debris was removed by centrifugation at 14000×g for 10 min. Aliquots of 10 μL of the resulting supernatant were added to wells of a microtiter plate, along with 90-μL aliquots of dilution buffer (10 mM citrate, 0.22% CTAB), followed by addition of 20 μL TMB liquid substrate system (Sigma Chemical Co.) to each sample well. The microtiter plate contents were held at room temperature until the sample with the highest concentration of MPO reached an absorbance value of 0.4 at 650 nm. The reaction was stopped by addition of 50 μL 1 M H2SO4 to each sample well, and the myeloperoxidase activity in each sample was determined from the absorbance at 405 nm. The background value from the right ear, treated only with acetone, was subtracted from that for the left ear, treated with arachidonic acid in acetone, for each animal. The percent inhibition of neutrophil influx (% Inh. MPO) by compounds of the invention was determined by comparison to animals treated identically, except that the solution administered by oral gavage was devoid of inhibitor compound.
(§3) The number of determinations is indicated in parentheses following each value

The test system of experiment [2] is ex vivo stimulated LTB4 production. Briefly: Murine arachidonic acid-induced inflammation model: ex vivo stimulated LTB4 production (% Inh. LTB4). The settings on record: Mus musculus; female Balb/c mice, 30 mg/kg oral gavage; blood taken 3 h after arachidonic acid, ex vivo A23187 stimulation; number of determinations in parentheses. The procedure: as §1, §2
One hundred-microliter aliquots of heparinized blood were added to wells of a microtiter plate, along with equal volumes of RPMI-1640 medium, and calcium ionophore A23187 was added to each sample well (final concentration=[…]). The microtiter plate contents were incubated for 30 min at 37° C. in a humidified incubator. The reaction was terminated by centrifugation (833×g, 10 min at 4° C.). Supernatants were analyzed for LTB4 by a commercially available enzyme-linked immunoassay (Cayman Chemical Co.) in accordance with the manufacturer's instructions. The percent inhibition of ex vivo stimulated LTB4 production (% Inh. LTB4) was determined by comparison to animals treated identically except that the solution administered by oral gavage was devoid of inhibitor compound.
as §3

Experiment [3] addresses T1, recombinant human LTA4 hydrolase (rhLTA4H) (Homo sapiens, UniProt P09960).
T1 construct: made in house; host or cells: Spodoptera frugiperda (Sf-9) cells, recombinant baculovirus (pFastBac1)
T1 sequence (P09960 1-611): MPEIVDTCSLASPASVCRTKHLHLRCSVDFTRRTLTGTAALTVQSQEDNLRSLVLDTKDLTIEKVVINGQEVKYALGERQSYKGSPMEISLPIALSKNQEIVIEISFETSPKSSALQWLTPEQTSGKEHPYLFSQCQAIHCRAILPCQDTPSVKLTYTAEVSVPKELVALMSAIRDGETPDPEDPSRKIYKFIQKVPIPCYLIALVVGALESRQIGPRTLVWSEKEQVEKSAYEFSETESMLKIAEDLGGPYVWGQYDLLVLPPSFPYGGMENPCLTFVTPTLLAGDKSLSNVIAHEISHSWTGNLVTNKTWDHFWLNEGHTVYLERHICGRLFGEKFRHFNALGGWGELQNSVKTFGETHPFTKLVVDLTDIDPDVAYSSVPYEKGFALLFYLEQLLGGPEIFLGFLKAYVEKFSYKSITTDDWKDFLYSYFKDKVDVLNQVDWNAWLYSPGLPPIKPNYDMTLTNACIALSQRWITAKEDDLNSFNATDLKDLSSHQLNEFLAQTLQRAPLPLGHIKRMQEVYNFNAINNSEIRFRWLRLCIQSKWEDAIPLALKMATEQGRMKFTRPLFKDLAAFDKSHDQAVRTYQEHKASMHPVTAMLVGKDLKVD
Briefly: Recombinant human LTA4 hydrolase assay for LTA4 hydrolase inhibitor activity. The settings on record: rhLTA4H, LTA4 substrate, LTB4 by immunoassay; single determination or average; read-out: IC50. In kind it is biochemical. A digest of the protocol:
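LTB4 formed from LTA4 substrate (free acid from the methyl ester) was quantified by enzyme immunoassay after a 30 min rt reaction. Enzyme was 10 ng Sf-9-expressed human LTA4 hydrolase, pre-incubated 10 min with compound.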

Experiment [4] concerns LTB4 production by calcium ionophore-stimulated murine blood. Briefly: LTB4 production by calcium ionophore-stimulated murine blood for LTA4H inhibitor activity. In kind it is cell-based, CD-1 mice. Conditions: Mus musculus; murine blood diluted 1 in 15, calcium ionophore A23187, LTB4 by immunoassay; read-out: IC50. A digest of the protocol: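 LTB4 quantified by EIA in supernatants after murine (CD-1) heparinized whole blood was exposed to compound for 15 min, then to 7 μg/mL (final) A23187 for 30 min, all at 37° C. Reported values: single runs or means; three or more runs include SD.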

Take `CC(=O)N[C@H]1C[C@H]2CC[C@@H](C1)N2CCc1ccc(Oc2nc3cccnc3s2)cc1` [Example 52, meso-N-[(3-endo)-8-{2-[4-([1,3]Thiazolo[5,4-b]pyridin-2-yloxy)phenyl]ethyl}-8-azabicyclo[3.2.1]oct-3-yl]acetamide]: the inhibition in vivo at 30 mg/kg in experiment [1] came out at 60.2%. In experiment [2], the inhibition at 30 mg/kg was 78.3%. Besides, the IC50 came out at 1 nM in experiment [3] and 13 nM in experiment [4].

For the compound `c1cnc2nc(Oc3ccc(CCN4CCOCC4)cc3)sc2c1` [Example 59, 2-[4-(2-Morpholin-4-ylethyl)phenoxy][1,3]thiazolo[4,5-b]pyridine], in experiment [1], the inhibition in vivo at 30 mg/kg came out at 89.9%. Besides, in experiment [2], the inhibition at 30 mg/kg turned out to be 92.7%. Further, the results for the IC50 in experiment [3] and in experiment [4] were 9 nM and 19 nM, respectively.

As for `CC(=O)N[C@H]1C[C@H]2CC[C@@H](C1)N2Cc1ccc(Oc2nc3ncc(F)cc3s2)cc1` [Example 288], the inhibition in vivo at 30 mg/kg in experiment [1] is 94.6%. Moreover, the inhibition at 30 mg/kg in experiment [2] amounted to 61.7%. Besides, the IC50 amounted to 15 nM in experiment [3] and 104 nM in experiment [4].

Turning to `CC(=O)N1C[C@@H]2C[C@H]1CN2Cc1ccc(Oc2nc3nccnc3s2)cc1` [Example 120, 2-(4-{[(1S,4S)-5-Acetyl-2,5-diazabicyclo[2.2.1]hept-2-yl]methyl}phenoxy)[1,3]thiazolo[4,5-b]pyrazine], in experiment [1], the inhibition in vivo at 30 mg/kg amounted to 48.1%. In experiment [2], the inhibition at 30 mg/kg came out at 57.8%. For the same compound, the results for the IC50 in experiment [3] and in experiment [4] were 110 ± 37 nM and 150 nM, respectively.

For `CC(=O)N1C[C@@H]2C[C@H]1CN2Cc1ccc(Oc2nc3ncc(Cl)cc3s2)cc1` [Example 122, 2-(4-{[(1S,4S)-5-Acetyl-2,5-diazabicyclo[2.2.1]hept-2-yl]methyl}phenoxy)-6-chloro[1,3]thiazolo[4,5-b]pyridine], in experiment [1], the inhibition in vivo at 30 mg/kg was determined as 66.9%. Also, in experiment [2], the inhibition at 30 mg/kg is 72%. Further, the 50% inhibitory concentration (IC50) stood at 48 nM in experiment [3] and 270 nM in experiment [4].

Regarding `O=C1CCCN1C1CCN(CCc2ccc(Oc3nc4ncccc4s3)cc2)CC1` [Example 46, 1-(1-{2-[4-([1,3]Thiazolo[4,5-b]pyridin-2-yloxy)phenyl]ethyl}piperidin-4-yl)pyrrolidin-2-one], the inhibition in vivo at 30 mg/kg in experiment [1] amounted to 75.3%. Besides, in experiment [2], the inhibition at 30 mg/kg amounted to 86.5%. Besides, the IC50 in experiment [3] is 13 nM; in experiment [4] it was 130 nM.

Turning to `CCN(CC)Cc1ccc(Oc2nc3ncccc3s2)cc1` [Example 111, N-Ethyl-N-[4-([1,3]thiazolo[4,5-b]pyridin-2-yloxy)benzyl]ethanamine], in experiment [1], the inhibition in vivo at 30 mg/kg was found to be 66.9%. In addition, the inhibition at 30 mg/kg in experiment [2] is 56.8%. Further, the half-inhibitory concentration (IC50) in experiment [3] was determined as 6.6 nM; in experiment [4], 30 nM.

As to `CC(=O)N1C[C@@H]2C[C@H]1CN2Cc1ccc(Oc2nc3ncccc3s2)cc1` [Example 127, 1-{(1S,4S)-5-[4-([1,3]Thiazolo[4,5-b]pyridin-2-yloxy)benzyl]-2,5-diazabicyclo[2.2.1]hept-2-yl}ethanone], in experiment [1], the inhibition in vivo at 30 mg/kg was 87.6%. Moreover, the inhibition at 30 mg/kg in experiment [2] was 91.5%. Besides, the IC50 in experiment [3] was found to be 5 nM; in experiment [4], 7.5 nM.

On to `CN(C)CCC1CCCCN1Cc1ccc(Oc2nc3ncccc3s2)cc1` (stereo not shown) [Example 258, N,N-Dimethyl-2-{1-[4-([1,3]thiazolo[4,5-b]pyridin-2-yloxy)benzyl]piperidin-2-yl}ethanamine], for which the inhibition in vivo at 30 mg/kg in experiment [1] was 13.8%. Moreover, the inhibition at 30 mg/kg in experiment [2] stood at 75%. The figures for the IC50 in experiment [3] and in experiment [4] were 2 nM and 47 nM, respectively.

Turning to `CC(=O)N[C@H]1C[C@H]2CC[C@@H](C1)N2CCc1ccc(Oc2nc3ncccc3s2)cc1` [Example 76, meso-N-[(3-endo)-8-{2-[4-([1,3]Thiazolo[4,5-b]pyridin-2-yloxy)phenyl]ethyl}-8-azabicyclo[3.2.1]oct-3-yl]acetamide], the inhibition in vivo at 30 mg/kg in experiment [1] was 78.3%. In addition, the inhibition at 30 mg/kg in experiment [2] amounted to 85.3%. Moreover, the figures for the IC50 in experiment [3] and in experiment [4] were 0.5 nM and 65 nM, respectively.

Regarding `NC(=O)C1CCN(Cc2ccc(Oc3nc4nccnc4s3)cc2)CC1` [Example 285, 1-[4-([1,3]Thiazolo[4,5-b]pyrazin-2-yloxy)benzyl]piperidine-4-carboxamide], the inhibition in vivo at 30 mg/kg in experiment [1] is 12.3%. The inhibition at 30 mg/kg in experiment [2] was determined as 19.7%. In addition, the IC50 was found to be 94 nM in experiment [3] and 300 nM in experiment [4].

For the compound `CC(=O)N1CC2CN(Cc3ccc(Oc4nc5ncccc5s4)cc3)CC2C1` (stereo not shown) [Example 276, 2-{4-[(5-Acetylhexahydropyrrolo[3,4-c]pyrrol-2(1H)-yl)methyl]phenoxy}[1,3]thiazolo[4,5-b]pyridine], in experiment [1], the inhibition in vivo at 30 mg/kg turned out to be 94.9%. Also, in experiment [2], the inhibition at 30 mg/kg was 57.4%. The values for the concentration for half-maximal inhibition (IC50) in experiment [3] and in experiment [4] were 3 nM and 10 nM, respectively.

As to `CC(=O)N[C@H]1C[C@H]2CC[C@@H](C1)N2Cc1ccc(Oc2nc3ncc(Cl)cc3s2)cc1` [Example 287, meso-endo-N-[8-{4-[(6-Chloro[1,3]thiazolo[4,5-b]pyridin-2-yl)oxy]benzyl}-8-azabicyclo[3.2.1]oct-3-yl]acetamide], in experiment [1], the inhibition in vivo at 30 mg/kg was determined as 86.7%. In addition, in experiment [2], the inhibition at 30 mg/kg was 89.8%. Besides, the IC50 in experiment [3] is 3 nM; in experiment [4], 110 nM.

As to `NC(=O)C1CCN(Cc2ccc(Oc3nc4ncccc4s3)cc2)CC1` [Example 100, 1-[4-([1,3]Thiazolo[4,5-b]pyridin-2-yloxy)benzyl]piperidine-4-carboxamide], in experiment [1], the inhibition in vivo at 30 mg/kg was determined as 88.7%. In addition, the inhibition at 30 mg/kg in experiment [2] worked out at 85.3%. For the same compound, the IC50 in experiment [3] was 7.2 nM; in experiment [4] it was 110 nM.

For the compound `CC(=O)N1CC2CN(CCOc3ccc(Oc4nc5ncccc5s4)cc3)CC2C1` (stereo not shown) [Example 18, 2-{4-[2-(5-Acetylhexahydropyrrolo[3,4-c]pyrrol-2(1H)-yl)ethoxy]phenoxy}[1,3]thiazolo[4,5-b]pyridine], the inhibition in vivo at 30 mg/kg in experiment [1] turned out to be 86.1%. In addition, the inhibition at 30 mg/kg in experiment [2] came out at 80.9%. Further, the 50% inhibitory concentration (IC50) stood at 5.5 nM in experiment [3] and 32 ± 24 nM in experiment [4].

As for `NC(=O)C1CCN(CCc2ccc(Oc3nc4ncccc4s3)cc2)CC1` [Example 66, 1-{2-[4-([1,3]Thiazolo[4,5-b]pyridin-2-yloxy)phenyl]ethyl}piperidine-4-carboxamide], in experiment [1], the inhibition in vivo at 30 mg/kg came to 60%. Moreover, in experiment [2], the inhibition at 30 mg/kg is 76.2%. In addition, the 50% inhibitory concentration (IC50) came to 12 nM in experiment [3] and 40 nM in experiment [4].
